Reference: patent US20240317721A1, “PYRAZOLYL DERIVATIVES AS INHIBITORS OF THE KRAS MUTANT PROTEIN” (NOVARTIS AG, priority 2021, published 2024)

Target: KRasG12C (M1-K169, biotinylated on the N-terminus) (Homo sapiens (Human), UniProt P01116, G12C)
Assay: Covalent competition assay: scintillation proximity assay (SPA) quantifying covalent modification of KRASG12C
Format: binding
Details: competition with radiolabeled covalent probe (Compound B/Compound A), 2 hours incubation, 10 nM KRasG12C
Summary of the method: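 Test compounds compete with a radiolabeled covalent probe for modification of N-terminally biotinylated KRasG12C(M1-K169):GDP, final 10 nM protein, 25 nM radio-ligand, 475 nM unlabelled ligand, 2 h with agitation in 20 mM Tris-HCl pH 7.5, 150 mM NaCl, 0.1 mM MgCl2, 0.01% Tween-20.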

Row | SMILES | IC50
1 | C=CC(=O)N1CC2(CC(n3nc(N4CC[C@@H](CN5CCCC6CN(C)C(=O)C65)CC4(C)C)c(-c4c(Cl)c(Cl)cc5[nH]ncc45)c3C)C2)C1 (single isomer, unassigned) [Example 262a, (4aR*,7aR*)-1-(((R)-1-(1-(2-acryloyl-2-azaspiro[3.3]heptan-6-yl)-4-(5,6-dichloro-1H-indazol-4-yl)-5-methyl-1H-pyrazol-3-yl)-2,2-dimethylpiperidin-4-yl)methyl)-6-methyloctahydro-7H-pyrrolo[3,4-b]pyridin-7-one] | > 5000 nM
2 | C=CC(=O)N1CC2(CC(n3nc(N4CC[C@@H](CN5CCCC6CN(C)C(=O)C65)CC4(C)C)c(-c4c(Cl)c(Cl)cc5[nH]ncc45)c3C)C2)C1 (single isomer, unassigned) [Example 262b, (4aR*,7aR*)-1-(((R)-1-(1-(2-acryloyl-2-azaspiro[3.3]heptan-6-yl)-4-(5,6-dichloro-1H-indazol-4-yl)-5-methyl-1H-pyrazol-3-yl)-2,2-dimethylpiperidin-4-yl)methyl)-6-methyloctahydro-7H-pyrrolo[3,4-b]pyridin-7-one] | 7 nM
3 | C=CC(=O)N1CC2(CC(n3nc(N4CC[C@@H](CN5CCN6C(=O)N(C)CC6C5)CC4(C)C)c(-c4c(Cl)c(Cl)cc5[nH]ncc45)c3C)C2)C1 (single isomer, unassigned) [Example 263a] | > 5000 nM
4 | C=CC(=O)N1CC2(CC(n3nc(N4CC[C@@H](CN5CCN6C(=O)N(C)CC6C5)CC4(C)C)c(-c4c(Cl)c(Cl)cc5[nH]ncc45)c3C)C2)C1 (single isomer, unassigned) [Example 263b] | 8 nM
5 | C=CC(=O)N1CC2(CC(n3nc(N4CC[C@@H](CN5CCN6C(=O)N(C)CC6C5)CC4(C)C)c(-c4c(Cl)c(Cl)cc5[nH]ncc45)c3C)C2)C1 (single isomer, unassigned) [Example 264a] | 351 nM
6 | C=CC(=O)N1CC2(CC(n3nc(N4CC[C@@H](CN5CCN6C(=O)N(C)CC6C5)CC4(C)C)c(-c4c(Cl)c(Cl)cc5[nH]ncc45)c3C)C2)C1 (single isomer, unassigned) [Example 264b] | 33 nM
7 | C=CC(=O)N1CC2(CC(n3nc(N4CC[C@@H](CN5CCOC6CS(=O)(=O)CC65)CC4(C)C)c(-c4c(Cl)c(Cl)cc5[nH]ncc45)c3C)C2)C1 (single isomer, unassigned) [Example 265a, 1-(6-(4-(5,6-dichloro-1H-indazol-4-yl)-3-((R)-4-(((4aR*,7aS*)-6,6-dioxidohexahydro-4H-thieno[3,4-b][1,4]oxazin-4-yl)methyl)-2,2-dimethylpiperidin-1-yl)-5-methyl-1H-pyrazol-1-yl)-2-azaspiro[3.3]heptan-2-yl)prop-2-en-1-one] | 2900 nM
8 | C=CC(=O)N1CC2(CC(n3nc(N4CC[C@@H](CN5CCOC6CS(=O)(=O)CC65)CC4(C)C)c(-c4c(Cl)c(Cl)cc5[nH]ncc45)c3C)C2)C1 (single isomer, unassigned) [Example 265b, 1-(6-(4-(5,6-dichloro-1H-indazol-4-yl)-3-((R)-4-(((4aR*,7aS*)-6,6-dioxidohexahydro-4H-thieno[3,4-b][1,4]oxazin-4-yl)methyl)-2,2-dimethylpiperidin-1-yl)-5-methyl-1H-pyrazol-1-yl)-2-azaspiro[3.3]heptan-2-yl)prop-2-en-1-one] | 9 nM
9 | C=CC(=O)N1CC2(CC(n3nc(N4CC[C@@H](CN5CCOC6CS(=O)(=O)CC65)CC4(C)C)c(-c4c(Cl)c(Cl)cc5[nH]ncc45)c3C)C2)C1 (single isomer, unassigned) [Example 266a, 1-(6-(4-(5,6-dichloro-1H-indazol-4-yl)-3-((R)-4-(((4aR*,7aS*)-6,6-dioxidohexahydro-4H-thieno[3,4-b][1,4]oxazin-4-yl)methyl)-2,2-dimethylpiperidin-1-yl)-5-methyl-1H-pyrazol-1-yl)-2-azaspiro[3.3]heptan-2-yl)prop-2-en-1-one] | 3100 nM
10 | C=CC(=O)N1CC2(CC(n3nc(N4CC[C@@H](CN5CCOC6CS(=O)(=O)CC65)CC4(C)C)c(-c4c(Cl)c(Cl)cc5[nH]ncc45)c3C)C2)C1 (single isomer, unassigned) [Example 266b, 1-(6-(4-(5,6-dichloro-1H-indazol-4-yl)-3-((R)-4-(((4aR*,7aS*)-6,6-dioxidohexahydro-4H-thieno[3,4-b][1,4]oxazin-4-yl)methyl)-2,2-dimethylpiperidin-1-yl)-5-methyl-1H-pyrazol-1-yl)-2-azaspiro[3.3]heptan-2-yl)prop-2-en-1-one] | 7 nM
11 | C=CC(=O)N1CC2(CC(n3nc(N4CC[C@@H](CN5CC6(CCN(C7COC7)C6)C5)CC4(C)C)c(-c4c(Cl)c(Cl)cc5[nH]ncc45)c3C)C2)C1 (single isomer, unassigned) [Example 267a] | 720 nM
12 | C=CC(=O)N1CC2(CC(n3nc(N4CC[C@@H](CN5CC6(CCN(C7COC7)C6)C5)CC4(C)C)c(-c4c(Cl)c(Cl)cc5[nH]ncc45)c3C)C2)C1 (single isomer, unassigned) [Example 267b] | 7 nM
13 | C=CC(=O)N1CC2(CC(n3nc(N4CC[C@@H](CN5CC6(CCN(C(C)=O)C6)C5)CC4(C)C)c(-c4c(Cl)c(Cl)cc5[nH]ncc45)c3C)C2)C1 (single isomer, unassigned) [Example 268a] | 789 nM
14 | C=CC(=O)N1CC2(CC(n3nc(N4CC[C@@H](CN5CC6(CCN(C(C)=O)C6)C5)CC4(C)C)c(-c4c(Cl)c(Cl)cc5[nH]ncc45)c3C)C2)C1 (single isomer, unassigned) [Example 268b] | 7 nM
15 | C=CC(=O)N1CC2(CC(n3nc(N4CC[C@@H](CN5CCP(C)(=O)CC5)CC4(C)C)c(-c4c(Cl)c(Cl)cc5[nH]ncc45)c3C)C2)C1 (single isomer, unassigned) [Example 269a] | 4300 nM
16 | C=CC(=O)N1CC2(CC(n3nc(N4CC[C@@H](CN5CCP(C)(=O)CC5)CC4(C)C)c(-c4c(Cl)c(Cl)cc5[nH]ncc45)c3C)C2)C1 (single isomer, unassigned) [Example 269b] | 6 nM
17 | C=CC(=O)N1CC2(CC(n3nc(N4CC[C@@H](CN5CCN(C)[C@H](CO)C5)CC4(C)C)c(-c4c(Cl)c(Cl)cc5[nH]ncc45)c3C)C2)C1 (single isomer, unassigned) [Example 270a] | 2400 nM
18 | C=CC(=O)N1CC2(CC(n3nc(N4CC[C@@H](CN5CCN(C)[C@H](CO)C5)CC4(C)C)c(-c4c(Cl)c(Cl)cc5[nH]ncc45)c3C)C2)C1 (single isomer, unassigned) [Example 270b] | 5 nM
19 | C=CC(=O)N1CC2(CC(n3nc(N4CC[C@@H](CN5CCO[C@@H](C(N)=O)C5)CC4(C)C)c(-c4c(Cl)c(Cl)cc5[nH]ncc45)c3C)C2)C1 (single isomer, unassigned) [Example 271a] | > 5000 nM
20 | C=CC(=O)N1CC2(CC(n3nc(N4CC[C@@H](CN5CCO[C@@H](C(N)=O)C5)CC4(C)C)c(-c4c(Cl)c(Cl)cc5[nH]ncc45)c3C)C2)C1 (single isomer, unassigned) [Example 271b] | 14 nM
21 | C=CC(=O)N1CC2(CC(n3nc(N4CC[C@@H](CN5CC6(CCCN6C6COC6)C5)CC4(C)C)c(-c4c(Cl)c(Cl)cc5[nH]ncc45)c3C)C2)C1 (single isomer, unassigned) [Example 272a] | > 5000 nM
22 | C=CC(=O)N1CC2(CC(n3nc(N4CC[C@@H](CN5CC6(CCCN6C6COC6)C5)CC4(C)C)c(-c4c(Cl)c(Cl)cc5[nH]ncc45)c3C)C2)C1 (single isomer, unassigned) [Example 272b] | 8 nM
